Data on 7 molecules can be found in patent US8907131B2, “Compounds for treating proliferative disorders” (Synta Pharmaceuticals Corp., priority 2007, dated 2014).

Some results are limits rather than exact numbers.

For one assay, the system named is Hsp70. The assay can be described thus: Hsp70 ELISA assay: Hsp70 induction in Ramos B lymphoma cells. The class given is cell-based. To be noted: Homo sapiens; Ramos B lymphoma cells treated at 10, 50, 250 and 1250 nM for 5 h; whole culture lysate, Hsp70 ELISA; read-out: ED50 (Hsp70 induction). As to the method: Hsp70 induction was measured in Ramos B lymphoma cells. Cells were seeded at 80 μl/well in 96-plate and treated with compounds at 10, 50, 250 and 1250 nM for 5 h. […] Cells were lysed in culture medium with ¼-vol of alkaline-detergent buffer composed of 200 mM bicarbonate, pH 9.4, and 20% Triton X100 to include Hsp70 that would be released into culture supernatant. […] Fifty microliter of the whole culture lysate was transferred to Hsp70 ELISA assay well (Assay Design) including 150 μl of immunoenhancer solution (Toyobo, Japan). Then the assay steps were carried out according to the protocol of the manufacturer. Compound A was included in each cell culture plate as a reference to normalize the interexperimental variance.
(ELISA stands for enzyme-linked immunosorbent assay.)
Regarding `CN(NC(=O)CC(=O)NN(C)C(=[Se])c1ccccc1)C(=[Se])c1ccccc1` [Compound 1, N′1,N′3-dimethyl-N′1,N′3-di(phenylcarbonoselenoyl)malonohydrazide], the EC50 came to 70 nM.
The same measure, in the same setting: the value for `CO/N=C(\c1ccccc1)N(C)NC(=O)CC(=O)NN(C)/C(=N/OC)c1ccccc1` [Compound 10, N′1,N′3-bis((E)-(methoxyimino)(phenyl)methyl)-N′1,N′3-dimethylmalonohydrazide] was over 1250 nM; that for `CN(NC(=O)CC(=O)NN(C)/C(=N/O)c1ccccc1)/C(=N/O)c1ccccc1` [Compound 11, N′1,N′3-bis((E)-(hydroxyimino)(phenyl)methyl)-N′1,N′3-dimethylmalonohydrazide] was over 1250 nM.
On the same count and under the same terms, the value for `COc1ccc(OC)c(C(=[Se])N(C)NC(=O)CC(=O)NN(C)C(=[Se])c2cc(OC)ccc2OC)c1` [Compound 12, N′^1,N′3-bis(2,5-dimethoxyphenylcarbonoselenoyl)-N′^1,N′^3-dimethylmalonohydrazide] was over 1250 nM.
Turning to `CNN=C(C(=O)NN(C)C(=[Se])c1ccccc1)C(=O)NN(C)C(=[Se])c1ccccc1` [Compound 13, N′1,N′3-dimethyl-2-(2-methylhydrazono)-N′1,N′3-di(phenylcarbonoselenoyl)malonohydrazide], the EC50 is over 1250 nM.
On the same count and under the same terms, the value for `CN(NC(=O)CS(=O)(=O)NN(C)C(=[Se])c1ccccc1)C(=[Se])c1ccccc1` [Compound 14, N′-methyl-2-(2-methyl-2-(phenylcarbonoselenoyl)hydrazinyl)-2-oxo-N′-(phenylcarbonoselenoyl)ethanesulfonohydrazide] was over 1250 nM.

The same assay, now with this note: Ramos B lymphoma cells; titration used to set cell density.
On to `CN(NC(=O)CC(=O)NN(C)C(=S)c1ccccc1)C(=S)c1ccccc1` [Compound A, reference compound], for which the Hsp70 induction entry was “Hsp70 induction in linear manner with concentration”.
